In assay [1] the target is β-secretase I (BACE1) (Homo sapiens, UniProt P56817). As to the kind of experiment: Biochemical assay, automated (CyclOps), BACE1. Conditions: automated CyclOps bioassay. The method, then: (§1) Unless otherwise indicated all biochemicals were purchased from Sigma-Aldrich Chemical Company, Poole, Dorset, U.K. and non-aqueous solvents, of analytical or higher grade, were purchased from ThermoFisher Scientific, Loughborough, U.K. MilliQ water (Elix 5 & MilliQ Gradient; Merck Millipore) was used as the base aqueous solvent to make up the biological buffers. Base assay buffer was prepared by adding a 50 mM solution of citric acid (1.00244; Merck Biosciences) to stirring solution of 50 mM trisodium citrate (1.06448; Merck Biosciences) until a final pH of 5.0 was achieved. […] All assays were routinely carried out in 384-well assay plates (Costar 4514; Corning Life Sciences) and incubated at 37±1° C. for 60 min. prior to reading the endpoint fluorescence intensity. The (7-methoxyl coumarin-4-yl)acetic acid based substrate β-secretase substrate VI (M2465; Bachem) was prepared as a 1 mM stock in 100% DMSO (D/4121/PB08; ThermoFisher). Assay buffer was prepared by adding DMSO to base buffer to a final concentration of 1% (vol./vol.). β-secretase I (18.64 μM; “BACE1”) and β-secretase II (4.65 μM; “BACE2”) were obtained from Janssen Pharmaceutica, Beerse, Belgium and were stored as frozen aliquots (˜20 μl) and thawed as required.
Sequence of β-secretase I (BACE1) (P56817 46-501): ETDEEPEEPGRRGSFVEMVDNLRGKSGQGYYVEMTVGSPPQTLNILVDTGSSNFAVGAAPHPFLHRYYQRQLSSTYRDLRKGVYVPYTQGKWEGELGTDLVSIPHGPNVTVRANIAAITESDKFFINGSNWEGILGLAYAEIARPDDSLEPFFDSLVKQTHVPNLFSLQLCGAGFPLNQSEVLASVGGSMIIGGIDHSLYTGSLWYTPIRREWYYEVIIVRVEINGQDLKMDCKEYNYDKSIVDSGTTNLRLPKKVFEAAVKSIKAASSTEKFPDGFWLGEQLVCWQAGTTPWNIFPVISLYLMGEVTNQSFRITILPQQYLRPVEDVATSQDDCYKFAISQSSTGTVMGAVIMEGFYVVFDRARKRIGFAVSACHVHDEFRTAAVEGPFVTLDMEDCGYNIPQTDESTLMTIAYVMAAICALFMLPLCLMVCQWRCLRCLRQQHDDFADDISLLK
(§2) Typically 12.5 μl of assay buffer was dispensed to rows B to P of the assay plate. To row A was added 18.75 μl of test compound diluted appropriately in assay buffer. A 6.25 μl aliquot of sample was transferred from row A to row B and the sample mixed three times by pipette. The process was repeated down the plate and 6.25 μl of solution discarded at row N post-mix. Rows O and P were designated as the positive and negative controls. To row P was added 6.25 μl base buffer. To rows A to O was added 6.25 μl enzyme (freshly prepared 40 nM BACE1 or 40 nM BACE2) diluted in base buffer. To initiate the assay 6.25 μl of freshly prepared 80 μM substrate, made up by diluting the 1 mM in 100% DMSO solution into HPLC grade water (Optima W6-212; ThermoFisher), was added to all the wells. The assay plate was covered and incubated at 37±1° C. for 60 min. The fluorescence intensity of the wells was read at 360/405 nm (excitation/emission) utilising a nine reads per well protocol (50 ms integration; density of 3, 0.25 mm spacing; SpectraMAX Paradigm plate reader; TUNE cartridge; SoftMax Pro v 6.3 software; Molecular Devices UK Ltd., Wokingham, Berkshire, UK) and outputting the median value of the nine reads as a text file. Data analysis was carried out using Prism software v 6.3 (GraphPad Inc., San Diego, Calif., USA) using the non-linear regression analysis models supplied by the vendor. For IC50 determinations the four parameter logistic variable slope model was used to fit the raw fluorescence intensity data with the ‘bottom’ fixed to the negative control.
(§3) The CyclOps bioassay module consisted of a fraction collection station, a reagent station, liquid handling robotics, plate store and an integrated plate reader (SpectraMAX Paradigm, TUNE cartridge, SoftMax Pro v 6.3; Molecular Devices). The fraction collection station composed of a 384 well collection plate (P-384-240SQ-C; Axygen, Union City, Calif., USA) mounted on a H-portal carriage (Festo AG & Co. KG, Esslingen, Germany), a syringe drive and a two-way six port injection valve fitted with a 200 μl loop (VICI AG International, Schenkon Switzerland). The output of the injection valve was addressable to all the positions of a 384 well collection plate. The reagent station consisted of hydraulically cooled (10-12° C.) aluminium segments; each manufactured to house a SBS microtiter plate footprint. Independent addressable reagent stations were housed within these sections. Where required, custom aluminium housings were used to accommodate standard laboratory plastic ware (e.g. Eppendorf tubes, Falcon tubes, etc.). As and when required the reagent reservoirs were covered and the lids contained holes through which the Teflon-coated probe could access solutions. […]

The target in assay [2] is T1, β-secretase II (BACE2) (Homo sapiens, UniProt Q9Y5Z0).
T1 sequence (Q9Y5Z0 63-518): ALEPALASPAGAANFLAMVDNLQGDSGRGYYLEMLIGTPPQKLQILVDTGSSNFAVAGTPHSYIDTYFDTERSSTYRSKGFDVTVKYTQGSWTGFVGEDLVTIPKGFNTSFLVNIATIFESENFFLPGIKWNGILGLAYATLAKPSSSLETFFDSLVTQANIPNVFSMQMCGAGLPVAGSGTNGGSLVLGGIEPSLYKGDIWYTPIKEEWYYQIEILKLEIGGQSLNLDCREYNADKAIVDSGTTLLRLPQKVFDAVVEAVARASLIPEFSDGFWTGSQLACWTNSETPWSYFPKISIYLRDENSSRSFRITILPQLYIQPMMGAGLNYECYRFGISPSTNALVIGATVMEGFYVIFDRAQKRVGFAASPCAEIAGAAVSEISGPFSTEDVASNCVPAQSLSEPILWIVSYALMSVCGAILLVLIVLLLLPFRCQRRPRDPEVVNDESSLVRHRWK
As to the kind of experiment: Biochemical assay, automated (CyclOps), BACE2. Conditions: automated CyclOps bioassay. As for the experimental part: as §1, §2, §3

For assay [3], the target named is T2, BACE1 (Homo sapiens, UniProt P56817).
T2 construct: recombinant BACE1 protein in a final concentration of 0.04 μg/ml
T2 sequence (P56817 46-501): as the sequence (P56817 46-501) above
As to the kind of experiment: BACE1 biochemical FRET based assay. The note with it: recombinant BACE1 0.04 μg/ml, 20 μM substrate, 450 min, pH 5.0; read-out: BIOCHEMICAL FRET BASED ASSAY pIC50 (converted). The text has this: (§4) This assay is a Fluorescence Resonance Energy Transfer Assay (FRET) based assay. The substrate for this assay is an APP derived 13 amino acids peptide that contains the ‘Swedish’ Lys-Met/Asn-Leu mutation of the amyloid precursor protein (APP) beta-secretase cleavage site. This substrate also contains two fluorophores: (7-methoxycoumarin-4-yl) acetic acid (Mca) is a fluorescent donor with excitation wavelength at 320 nm and emission at 405 nm and 2,4-Dinitrophenyl (Dnp) is a proprietary quencher acceptor. […] Upon cleavage by BACE1, the fluorophore Mca is separated from the quenching group Dnp, restoring the full fluorescence yield of the donor. The increase in fluorescence is linearly related to the rate of proteolysis.
Briefly in a 384-well format recombinant BACE1 protein in a final concentration of 0.04 μg/ml is incubated for 450 minutes at room temperature with 20 μM substrate in incubation buffer (50 mM Citrate buffer pH 5.0, 0.05% PEG) in the presence of compound or DMSO. Next the amount of proteolysis is directly measured by fluorescence measurement (excitation at 320 nm and emission at 405 nm) at different incubation times (0, 30, 60, 90, 120 and 450 min). For every experiment a time curve (every 30 min between 0 min and 120 min) is used to determine the time where we find the lowest basal signal of the high control. The signal at this time (Tx) is used to subtract from the signal at 450 min. Results are expressed in RFU, as difference between T450 and Tx.
(§5) A best-fit curve is fitted by a minimum sum of squares method to the plot of % Controlmin versus compound concentration. From this an IC50 value (inhibitory concentration causing 50% inhibition of activity) can be obtained. • LC=Median of the low control values=Low control: Reaction without enzyme • HC=Median of the High control values=High Control: Reaction with enzyme
(§6) % Effect=100−[(sample−LC)/(HC−LC)*100]
(§7) % Control=(sample/HC)*100
(§8) % Controlmin=(sample−LC)/(HC−LC)*100

The test system of assay [4] is Abeta 1-42 produced and secreted by SKNBE2 cells expressing hAPP695. Briefly: Cellular αLisa assay in SKNBE2 cells, Abeta 1-42. Type of assay: cell-based, human. Conditions: Homo sapiens, SKNBE2, 18 h, SKNBE2 cells expressing hAPP695, 18 hours incubation; read-out: CELLULAR αLISA ASSAY IN SKNBE2 CELLS ABETA 42 PIC50 (converted). The method, then:
In two αLisa assays the levels of Abeta total and Abeta 1-42 produced and secreted into the medium of human neuroblastoma SKNBE2 cells are quantified. The assay is based on the human neuroblastoma SKNBE2 expressing the wild type Amyloid Precursor Protein (hAPP695). The compounds are diluted and added to these cells, incubated for 18 hours and then measurements of Abeta 1-42 and Abeta total are taken. Abeta total and Abeta 1-42 are measured by sandwich αLisa. αLisa is a sandwich assay using biotinylated antibody AbN/25 attached to streptavidin coated beads and antibody Ab4G8 or cAb42/26 conjugated acceptor beads for the detection of Abeta total and Abeta 1-42 respectively. In the presence of Abeta total or Abeta 1-42, the beads come into close proximity. The excitation of the donor beads provokes the release of singlet oxygen molecules that trigger a cascade of energy transfer in the acceptor beads, resulting in light emission. Light emission is measured after 1 hour incubation (excitation at […] and emission at 615 nm).
A best-fit curve is fitted by a minimum sum of squares method to the plot of % Controlmin versus compound concentration. From this an IC50 value (inhibitory concentration causing 50% inhibition of activity) can be obtained. • LC=Median of the low control values=Low control: cells preincubated without compound, without biotinylated Ab in the αLisa • HC=Median of the High control values=High Control: cells preincubated without compound
as §6, §7, §8

Assay [5] has as its target T3, BACE2 (Homo sapiens, UniProt Q9Y5Z0).
T3 construct: recombinant BACE2 protein in a final concentration of 0.4 μg/ml
T3 sequence (Q9Y5Z0 63-518): T1 sequence (Q9Y5Z0 63-518)
Briefly: BACE2 biochemical FRET based assay. The note with it: recombinant BACE2 0.4 μg/ml, 10 μM substrate, 450 min, pH 5.0; read-out: BIOCHEMICAL FRET BASED ASSAY pIC50 (converted).
Excerpt: as §4, with “assay” for “assay is an APP derived 13 amino acids peptide that”, “the beta-secretase,” for “BACE1,”
Briefly in a 384-well format recombinant BACE2 protein in a final concentration of 0.4 μg/ml is incubated for 450 minutes at room temperature with 10 μM substrate in incubation buffer (50 mM Citrate buffer pH 5.0, 0.05% PEG, no DMSO) in the absence or presence of compound. Next the amount of proteolysis is directly measured by fluorescence measurement at T=0 and T=450 (excitation at 320 nm and emission at 405 nm). Results are expressed in RFU (Relative Fluorescence Units), as difference between T450 and TO.
as §5, §6, §7, §8

These results are taken from patent US20200010482A1, “INHIBITORS OF BETA SECRETASE” (Janssen Pharmaceutica NV, priority 2017, published 2020).

As for `COc1ncc(-c2c(C)noc2C)c2c1C[C@]1(c3cc(OCCC4CCCC4)ccc3F)N=C(N)SC[C@@H]1C2` [Compound 150], the “AUTOMATED ASSAY BACE1 pIC50” value in assay [1] is on record as 6.12. Also, in assay [2], the “AUTOMATED ASSAY BACE2 pIC50” value is recorded as 5.3.
On to `COc1ncc(-c2ccccc2F)c2c1C[C@]1(c3cc(OCCC#N)ccc3F)N=C(N)SC[C@@H]1C2` [Compound 156], for which the “AUTOMATED ASSAY BACE1 pIC50” value in assay [1] turned out to be 6.32. The “AUTOMATED ASSAY BACE2 pIC50” value in assay [2] is 6.36.
The corresponding values for `COc1cccc(COc2ccc(F)c([C@]34Cc5c(OC)ncc(-c6c(C)noc6C)c5C[C@H]3CSC(N)=N4)c2)c1` [Compound 145] are 6.89 and 5.52.
For `COc1ncc(-c2cc(F)cc(F)c2)c2c1C[C@]1(c3ccc(F)cc3F)N=C(N)SC[C@@H]1C2` [Compound 54], in that order: 8.54 and 8.42.
The corresponding values for `COc1ncc(-c2cccc3c2OCCC3)c2c1C[C@]1(c3ccc(F)cc3F)N=C(N)SC[C@@H]1C2` [Compound 128] are 7.01 and 6.19.
`COc1ncc(-c2ccc(F)cc2C)c2c1C[C@]1(c3ccc(F)cc3F)N=C(N)SC[C@@H]1C2` [Compound 58]: in assay [1], the “AUTOMATED ASSAY BACE1 pIC50” value came to 7.77. In addition, the “AUTOMATED ASSAY BACE2 pIC50” value in assay [2] was 6.99.
For `COc1ccc(OC)c(-c2cnc(OC)c3c2C[C@H]2CSC(N)=N[C@@]2(c2cc(OCc4ccccc4F)ccc2F)C3)c1` [Compound 139], in that order: 5.55 and 4.97.
The corresponding values for `COc1ncc(-c2ccccc2F)c2c1C[C@]1(c3ccc(F)cc3F)N=C(N)SC[C@@H]1C2` [Compound 50] are 8.28 and 7.96.
On to `COc1ncc(-c2ccncc2C)c2c1CC1(c3ccc(F)cc3F)N=C(N)OCC1C2` (racemic) [Compound 32], for which the IC50 in assay [3] was 50.1 nM; in assay [4] it was 7.24 nM; in assay [5], 1120 nM.
Consider `CCOc1nccc2c1CC1(c3ccc(F)cc3F)N=C(N)SCC1C2` (racemic) [Compound 4], for which the results for the IC50 in assay [3], in assay [4] and in assay [5] were 166 nM, 186 nM and 331 nM, respectively.
Consider `COc1nccc2c1CC1(c3cc([N+](=O)[O-])c(F)cc3F)N=C(N)SCC1C2` (racemic) [Compound 8], for which the values for the IC50 in assay [3], in assay [4] and in assay [5] were 219 nM, 135 nM and 537 nM, respectively.
The corresponding values for `COc1ncc(Br)c2c1C[C@]1(c3cc(O)ccc3F)N=C(N)SC[C@@H]1C2` [Compound 42] are 27.5 nM, 155 nM and 29.5 nM.
For `COc1nccc2c1CC1(c3cc(-c4cncnc4)c(F)cc3F)N=C(N)SCC1C2` (racemic) [Compound 11], in that order: 21.9 nM, 2.95 nM and 219 nM.
